Six compounds from ChEMBL document CHEMBL3525904, “Effect of structural variation on aldehyde oxidase-catalyzed oxidation of zoniporide” (Drug Metab Dispos, 2012) can be followed below.

Holding throughout (assay type): ADME, subcellular
The target of series [1] is T1, Aldehyde oxidase (Homo sapiens, UniProt Q06278).
T1 sequence (Q06278 whole entry): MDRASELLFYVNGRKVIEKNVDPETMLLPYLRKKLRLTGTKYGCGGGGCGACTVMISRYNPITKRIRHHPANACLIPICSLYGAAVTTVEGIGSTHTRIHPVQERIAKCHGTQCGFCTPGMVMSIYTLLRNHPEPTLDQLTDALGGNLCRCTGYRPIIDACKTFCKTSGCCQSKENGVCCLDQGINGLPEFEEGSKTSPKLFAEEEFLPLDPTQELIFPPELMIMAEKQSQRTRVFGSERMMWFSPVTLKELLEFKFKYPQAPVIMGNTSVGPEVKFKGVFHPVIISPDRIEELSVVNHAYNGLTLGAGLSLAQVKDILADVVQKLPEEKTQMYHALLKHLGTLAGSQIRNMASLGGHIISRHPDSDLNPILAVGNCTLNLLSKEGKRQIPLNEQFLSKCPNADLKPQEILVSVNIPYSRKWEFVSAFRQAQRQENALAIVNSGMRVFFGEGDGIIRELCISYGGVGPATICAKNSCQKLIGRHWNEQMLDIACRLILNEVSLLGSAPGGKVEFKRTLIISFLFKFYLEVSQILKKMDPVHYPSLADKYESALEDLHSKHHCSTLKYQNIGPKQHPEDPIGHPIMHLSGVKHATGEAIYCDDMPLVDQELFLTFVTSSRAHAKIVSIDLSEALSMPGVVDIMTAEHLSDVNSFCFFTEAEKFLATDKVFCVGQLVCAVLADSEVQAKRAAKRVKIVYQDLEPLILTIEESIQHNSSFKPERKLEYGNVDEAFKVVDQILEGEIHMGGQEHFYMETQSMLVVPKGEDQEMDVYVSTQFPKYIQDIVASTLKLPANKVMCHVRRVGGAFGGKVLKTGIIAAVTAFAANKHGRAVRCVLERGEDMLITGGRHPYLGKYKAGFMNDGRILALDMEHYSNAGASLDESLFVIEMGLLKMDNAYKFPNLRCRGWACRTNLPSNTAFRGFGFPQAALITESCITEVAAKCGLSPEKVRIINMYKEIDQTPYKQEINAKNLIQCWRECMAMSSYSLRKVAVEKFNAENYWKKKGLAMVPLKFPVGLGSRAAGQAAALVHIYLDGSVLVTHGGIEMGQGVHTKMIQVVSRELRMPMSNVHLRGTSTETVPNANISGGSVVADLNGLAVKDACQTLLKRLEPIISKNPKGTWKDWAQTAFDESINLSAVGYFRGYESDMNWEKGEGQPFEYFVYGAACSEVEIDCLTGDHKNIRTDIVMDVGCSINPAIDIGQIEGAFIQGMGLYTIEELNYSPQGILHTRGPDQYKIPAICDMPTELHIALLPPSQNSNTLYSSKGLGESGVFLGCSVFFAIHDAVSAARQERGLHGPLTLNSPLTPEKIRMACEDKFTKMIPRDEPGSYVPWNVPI
The series is described as follows: Drug level in human liver S9 fraction assessed as aldehyde oxidase-mediated compound formation treated with 10 uM 1-(1H-benzo[d]imidazol-4-yl)-N-carbamimidoyl-5-cyclopropyl-1H-pyrazole-4-carboxamide by spectrometry.

In series [2] the target is T1, Aldehyde oxidase. The series can be described thus: Drug level in human liver S9 fraction assessed as aldehyde oxidase-mediated compound formation treated with 10 uM N-carbamimidoyl-5-cyclopropyl-1-(6-methylquinolin-5-yl)-1H-pyrazole-4-carboxamide by spectrometry.
Series [3] deals with T1, Aldehyde oxidase. The series is described as follows: Drug level in human liver S9 fraction assessed as aldehyde oxidase-mediated compound formation treated with 10 uM N-carbamimidoyl-5-cyclopropyl-1-(quinolin-4-yl)-1H-pyrazole-4-carboxamide by spectrometry.
For series [4], the target named is T1, Aldehyde oxidase. The series is described as follows: Drug level in human liver S9 fraction assessed as aldehyde oxidase-mediated compound formation treated with 10 uM N-carbamimidoyl-5-cyclopropyl-1-(6-hydroxyquinolin-5-yl)-1H-pyrazole-4-carboxamide by spectrometry.
For series [5], the target named is T1, Aldehyde oxidase. The series can be described thus: Drug level in human liver S9 fraction assessed as aldehyde oxidase-mediated compound formation treated with 10 uM N-carbamimidoyl-5-cyclopropyl-1-(6-methoxyquinolin-5-yl)-1H-pyrazole-4-carboxamide by spectrometry.
Series [6] addresses T1, Aldehyde oxidase. The series is described as follows: Drug level in human liver S9 fraction assessed as aldehyde oxidase-mediated compound formation treated with 10 uM N-carbamimidoyl-5-cyclopropyl-1-(quinolin-6-yl)-1H-pyrazole-4-carboxamide by spectrometry.

Take `N=C(N)NC(=O)c1cnn(-c2cccc3[nH]c(=O)[nH]c23)c1C1CC1`: the Drug metabolism entry on Aldehyde oxidase [1] was “metabolite_detected”.

Consider `Cc1ccc2[nH]c(=O)ccc2c1-n1ncc(C(=O)NC(=N)N)c1C1CC1`, for which the Drug metabolism entry at Aldehyde oxidase [2] is given as “metabolite_detected”.

In the case of `N=C(N)NC(=O)c1cnn(-c2cc(=O)[nH]c3ccccc23)c1C1CC1`, the Drug metabolism result on Aldehyde oxidase [3] is reported as “metabolite_detected”.

With `N=C(N)NC(=O)c1cnn(-c2c(O)ccc3[nH]c(=O)ccc23)c1C1CC1`, the Drug metabolism result on Aldehyde oxidase [4] is given as “metabolite_detected”.

Consider `COc1ccc2[nH]c(=O)ccc2c1-n1ncc(C(=O)NC(=N)N)c1C1CC1`, for which the Drug metabolism result at Aldehyde oxidase [5] is “metabolite_detected”.

Regarding `N=C(N)NC(=O)c1cnn(-c2ccc3[nH]c(=O)ccc3c2)c1C1CC1`, the Drug metabolism result on Aldehyde oxidase [6] is “metabolite_detected”.
